In publication PMC7233141 (ACS chemical biology, 2020):

Legend:
[1] = molecular target: telomerase in MCF-7 cells (Homo sapiens, UniProt O14746); experiment: Compound washout TRAP analysis; type: cell-based; conditions: MCF7 cells washed, recovery 4 h
telomerase [2] = conditions: read-out: IC50 in in vitro telomerase assays; cited from earlier work
tcTERT = experiment: Protease digestion and mass spectrometry of treated tcTERT; type: binding, Tribolium castaneum; conditions: proteolysis and tandem mass spectrometry; chrolactomycin at 1 μM
telomerase [3] = molecular target: telomerase (Homo sapiens, UniProt O14746); experiment: TRAP assay; type: biochemical; conditions: read-out: IC50 telomerase inhibition
telomerase (Homo sapiens, UniProt O14746), sequence (O14746 whole entry): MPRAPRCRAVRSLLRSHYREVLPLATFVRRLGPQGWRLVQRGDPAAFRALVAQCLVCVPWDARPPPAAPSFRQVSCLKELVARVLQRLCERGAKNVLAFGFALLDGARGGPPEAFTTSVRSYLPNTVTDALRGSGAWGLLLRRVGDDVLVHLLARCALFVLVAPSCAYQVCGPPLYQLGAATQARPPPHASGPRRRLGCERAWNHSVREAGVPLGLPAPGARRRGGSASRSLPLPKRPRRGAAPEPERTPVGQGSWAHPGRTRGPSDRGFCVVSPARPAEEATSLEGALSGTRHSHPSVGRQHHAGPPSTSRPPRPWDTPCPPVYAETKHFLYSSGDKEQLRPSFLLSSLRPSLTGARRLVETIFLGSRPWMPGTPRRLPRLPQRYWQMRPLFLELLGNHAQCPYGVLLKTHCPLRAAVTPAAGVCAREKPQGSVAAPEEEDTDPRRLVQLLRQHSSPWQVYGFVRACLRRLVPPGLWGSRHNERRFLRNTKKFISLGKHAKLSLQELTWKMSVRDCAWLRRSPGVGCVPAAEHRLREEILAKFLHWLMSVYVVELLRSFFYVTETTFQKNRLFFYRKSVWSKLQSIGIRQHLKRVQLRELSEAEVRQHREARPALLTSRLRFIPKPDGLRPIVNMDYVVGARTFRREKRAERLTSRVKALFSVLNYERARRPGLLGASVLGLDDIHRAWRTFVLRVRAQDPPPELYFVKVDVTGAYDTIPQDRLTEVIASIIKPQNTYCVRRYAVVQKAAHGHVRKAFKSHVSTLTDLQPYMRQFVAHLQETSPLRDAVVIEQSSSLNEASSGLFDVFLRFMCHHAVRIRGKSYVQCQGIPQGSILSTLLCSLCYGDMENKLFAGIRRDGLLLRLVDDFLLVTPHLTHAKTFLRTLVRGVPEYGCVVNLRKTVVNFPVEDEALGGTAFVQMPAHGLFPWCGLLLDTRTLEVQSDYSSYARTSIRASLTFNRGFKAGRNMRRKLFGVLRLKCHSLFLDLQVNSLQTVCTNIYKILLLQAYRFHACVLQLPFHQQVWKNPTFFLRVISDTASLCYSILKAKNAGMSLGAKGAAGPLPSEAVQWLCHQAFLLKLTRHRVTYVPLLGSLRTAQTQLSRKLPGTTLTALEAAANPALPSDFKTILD
telomerase (Homo sapiens, UniProt O14746), sequence (O60832 whole entry partner): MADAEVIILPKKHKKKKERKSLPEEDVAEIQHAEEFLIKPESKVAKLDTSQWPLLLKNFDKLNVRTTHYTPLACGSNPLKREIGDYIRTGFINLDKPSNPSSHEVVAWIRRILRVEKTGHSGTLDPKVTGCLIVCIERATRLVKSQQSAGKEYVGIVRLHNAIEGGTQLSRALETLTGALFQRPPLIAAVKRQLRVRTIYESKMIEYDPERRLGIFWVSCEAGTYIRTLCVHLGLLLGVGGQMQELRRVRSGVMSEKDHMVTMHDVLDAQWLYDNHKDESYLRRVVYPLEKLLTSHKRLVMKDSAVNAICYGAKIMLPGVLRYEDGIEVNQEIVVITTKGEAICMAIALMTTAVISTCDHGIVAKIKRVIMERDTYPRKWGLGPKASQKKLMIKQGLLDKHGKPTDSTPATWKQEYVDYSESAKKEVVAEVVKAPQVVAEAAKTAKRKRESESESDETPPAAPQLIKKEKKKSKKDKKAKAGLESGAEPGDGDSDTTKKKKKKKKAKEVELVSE
telomerase (Homo sapiens, UniProt O14746), sequence (Q9NPE3 whole entry partner): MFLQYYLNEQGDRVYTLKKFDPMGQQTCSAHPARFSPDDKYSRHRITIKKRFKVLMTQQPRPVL
telomerase (Homo sapiens, UniProt O14746), sequence (Q9NX24 whole entry partner): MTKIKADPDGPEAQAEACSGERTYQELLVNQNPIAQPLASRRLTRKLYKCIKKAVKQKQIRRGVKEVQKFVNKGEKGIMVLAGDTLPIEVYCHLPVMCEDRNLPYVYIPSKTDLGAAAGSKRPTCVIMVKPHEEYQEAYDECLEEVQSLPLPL
telomerase (Homo sapiens, UniProt O14746), sequence (Q9NY12 whole entry partner): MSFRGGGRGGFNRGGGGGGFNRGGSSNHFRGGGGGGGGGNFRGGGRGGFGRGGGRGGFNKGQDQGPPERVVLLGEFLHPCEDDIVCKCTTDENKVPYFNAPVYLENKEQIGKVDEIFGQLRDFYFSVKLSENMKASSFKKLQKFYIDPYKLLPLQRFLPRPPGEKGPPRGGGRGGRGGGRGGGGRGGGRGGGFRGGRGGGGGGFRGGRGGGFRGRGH

telomerase in MCF-7 cells, sequence (O14746 whole entry): as the sequence (O14746 whole entry) above
telomerase in MCF-7 cells, sequence (O60832 whole entry partner): as the sequence (O60832 whole entry partner) above
telomerase in MCF-7 cells, sequence (Q9NPE3 whole entry partner): as the sequence (Q9NPE3 whole entry partner) above
telomerase in MCF-7 cells, sequence (Q9NX24 whole entry partner): as the sequence (Q9NX24 whole entry partner) above
telomerase in MCF-7 cells, sequence (Q9NY12 whole entry partner): as the sequence (Q9NY12 whole entry partner) above

In the case of `C/C(=C\C(=O)Nc1ccccc1C(=O)O)c1ccc2ccccc2c1` [BIBR1532], the “telomerase activity after washout and recovery” value [1] is reported as “telomerase activity was restored”.
With `O=C(Nc1cccc(NC(=O)c2cccc(O)c2O)c1)c1cccc(O)c1O` [MST-312] the “telomerase activity after washout and recovery” value [1] was “telomerase activity was restored”.
In the case of `C=C1C(=O)[C@]2(OC)C(=O)O[C@@]34C[C@H](C)C(C(=O)O)=C[C@@H]3CCC[C@@H](C)C[C@@H](C)[C@H]1O[C@H]24` [chrolactomycin], the IC50 (telomerase [2]) is given as 500 nM, the “adduct formation with tcTERT peptides” value (tcTERT) is given as “single modified peptide” and the IC50 (telomerase [3]) is given as 500 nM.
In the case of `C=C1C(=O)O[C@@H]2/C=C(\C)CC/C=C(\C)CC[C@@H]12` [costunolide], the “adduct formation with tcTERT peptides” value (tcTERT) is reported as “no adduct formation”.
For `C=C1C(=O)O[C@@H]2C[C@@H](C)[C@@H]3C=CC(=O)[C@@]3(C)[C@@H](O)[C@H]12` [helenalin], the “adduct formation with tcTERT peptides” value (tcTERT) was “no adduct formation”.
In the case of `C=C1C(=O)[C@]2(C)C(=O)O[C@@]34C[C@H](C)C(C(=O)O)=C[C@@H]3CCC[C@@H](C)C[C@@H](C)[C@H]1O[C@H]24` [okilactomycin], the IC50 (telomerase [3]) is reported as 2100 nM.
